Laboratory results as given in US20100284914A1 (priority 2005, published 2010).
≈ marks a conversion by molar mass, not a printed value. Where two headings read alike, the source gives them in different places.

What was measured:
Candida albicans CBS 562 = assay type: cell-based; conditions: for MIC: read-out: MIC (column A)
Candida albicans 607 = assay type: cell-based
Candida albicans 615 = assay type: cell-based
[1] = test system: Candida glabrata 4475 (resistant to azoles); assay type: cell-based; conditions: Nakaseomyces glabratus, 24 h, read-out: MIC
Candida glabrata 4681 = assay type: cell-based; conditions: footnote c
Candida glabrata 4787 = assay type: cell-based
Rhizopus oryzae = assay: microbe, parasite or virus in culture; assay type: cell-based; conditions: Rhizopus arrhizus
in vivo = conditions: male, ICR, mouse, iv
[2] = long chain lengths
Sprague-Dawley rats = assay: PET imaging, bio-distribution; assay type: in vivo; conditions: normal female Sprague-Dawley rats, 50 μCi via tail vein, imaged after 30 minutes
Procedure: The exemplary [^18F] labeled amine fluorocyanoborane according to the present embodiments, Compound [^18F]K-I4, was injected into normal rats, and was monitored by a PET/CT Philips camera.
Four normal, female Sprague-Dawley rats (250-300 grams each) were injected via the tail vein with 50 μCi of Compound [^18F]K-I4 solution in saline (4.5 mCi/ml). Fifteen minutes after injection, the rats were anesthetized with 45 mg Ketamine and 24 mg Acepromazin, and after 30 minutes each rat was imaged for 15 minutes.

[3] = Stability of the radiolabeled product by TLC; assay type: physicochemical; conditions: saline solution, after 10 hours, silica gel 60 F254
Procedure: The final product was tested on TLC (silica gel 60 F254) after 10 hours and found stable.

[4] = CBS562, Candida albicans CBS 562, MIC-0, 24 h, 35° C.
[5] = Candida albicans 607, MIC-0, 24 h, 35° C., read-out: MIC
[6] = Candida albicans 615, MIC-0, 24 h, 35° C., read-out: MIC
[7] = Candida glabrata 4475 (resistant to azoles), footnote c
[8] = Nakaseomyces glabratus, Candida glabrata 4787, read-out: MIC
[9] = Candida albicans, 607, 24 h, read-out: MIC
[10] = Candida albicans, 615, 24 h, read-out: MIC

SMILES | MIC (Candida albicans CBS 562; [4]) [µM] | MIC (Candida albicans 607; [5]) [µM] | MIC (Candida albicans 615; [6]) [µM] | MIC [1, 7] [µg/mL] | MIC (Candida glabrata 4681) | other results
C[N+](C)(C)[BH-](F)C#N (stereo not drawn) |  |  |  |  |  | melting point: 53 °C
C[N+](C)(C)[B-](F)(F)C#N |  |  |  |  |  | melting point: 48 °C
COC(=O)[B-](F)(F)[N+](C)(C)C |  |  |  |  |  | melting point: 66 °C
C[C@@H]1[C@H](O)[C@@H](C)/C=C/C=C/C=C/C=C/C=C/C=C/C=C/[C@H](O[C@@H]2O[C@H](C)[C@@H](O)[C@H](N)[C@@H]2O)C[C@@H]2O[C@](O)(C[C@@H](O)C[C@@H](O)[C@H](O)CC[C@@H](O)C[C@@H](O)CC(=O)O[C@H]1C)C[C@H](O)[C@H]2C(=O)O [CAF1, Amphotericin B, reference compound] |  |  |  |  |  | MIC (column A) (Candida albicans CBS 562; Candida albicans CBS 562, MIC-0, 24 h, 35° C.): 0.54 µM (≈ 0.499 µg/mL); MIC (Candida albicans 607; Candida albicans 607, MIC-0, 24 h, 35° C.): 0.27 µM (≈ 0.25 µg/mL); MIC (Candida albicans 615; Candida albicans 615, MIC-0, 24 h, 35° C.): 0.27 µM (≈ 0.25 µg/mL)
C[N+](C)(C)[B-](Br)(Br)C#N [K-E, trimethyl-amine cyanodibromoborane] | 1970 (≈ 504 µg/mL) | > 1970 | > 1970 | > 0.5 |  | 
CCCCCCCCCCC[N+](C)(C)[BH-](Br)C#N (stereo not drawn) [K-I1, dimethyl-undecyl-amine cyanobromoborane] | 49 (≈ 15.5 µg/mL) | 49 (≈ 15.5 µg/mL) | 49 (≈ 15.5 µg/mL) | 0.0078 (≈ 0.0246 µM) | 7.8^c μg per liter | MIC (Candida glabrata 4787; [8]): 15.6 µM (≈ 4.95 µg/mL); MIC (Rhizopus oryzae): 63 µg/mL (≈ 199 µM)
CCCCCCCCCCC[N+](C)(C)[B-](Br)(Br)C#N [K-I2, dimethyl-undecyl-amine cyanodibromoborane] | 39 (≈ 15.4 µg/mL) | 39 (≈ 15.4 µg/mL) | 39 (≈ 15.4 µg/mL) |  | 32^c μg per liter | MIC (Candida glabrata 4787; [8]): 32 µM (≈ 12.7 µg/mL); MTD (in vivo): 73.1 µmol/kg
CCCCCCCCCCC[N+](C)(C)[B-](F)(Br)C#N (stereo not drawn) [K-I3, dimethyl-undecyl-amine cyanofluorobromoborane] | 7.8 (≈ 2.61 µg/mL) |  |  |  |  | MIC (Rhizopus oryzae): 63 µg/mL (≈ 188 µM)
CCCCCCCCCCC[N+](C)(C)[BH-](F)C#N (stereo not drawn) [K-I4, dimethyl-undecyl-amine cyanofluoroborane] | 64 (≈ 16.4 µg/mL) | 64 (≈ 16.4 µg/mL) | 64 (≈ 16.4 µg/mL) |  |  | 
C[N+](C)(CCCCCCCCCC[N+](C)(C)[BH-](Br)C#N)[BH-](Br)C#N (stereo not drawn) [K-J1, N,N,N′,N′-tetramethyldecane-1,10-diamine bis-cyanobromoborane] | 140 (≈ 64.9 µg/mL) | 140 (≈ 64.9 µg/mL) | 140 (≈ 64.9 µg/mL) | 0.065 (≈ 0.14 µM) | 65^c μg per liter | MIC (Candida glabrata 4787; [8]): 65 µM (≈ 30.2 µg/mL)
C[N+](C)(CCCCCCCCCC[N+](C)(C)[B-](Br)(Br)C#N)[B-](Br)(Br)C#N [K-J2, N,N,N′,N′-tetramethyldecane-1,10-diamine bis-cyanodibromoborane] |  |  |  |  | 65^c μg per liter | MIC (Candida albicans CBS 562; Candida albicans, CBS562, 24 h): 104 µM (≈ 64.7 µg/mL); MIC (Candida albicans 607; [9]): 104 µM (≈ 64.7 µg/mL); MIC (Candida albicans 615; [10]): 104 µM (≈ 64.7 µg/mL); MIC [1]: 0.065 µg/mL (≈ 0.105 µM); MIC (Candida glabrata 4787; Nakaseomyces glabratus, 4787, read-out: MIC): 65 µM (≈ 40.4 µg/mL)
C[N+](C)([BH2-]C(=O)O)CCCCCCCCCC[N+](C)(C)[BH2-]C(=O)O [K-J3, N,N,N′,N′-tetramethyldecane-1,10-diamine bis-carboxyborane] | 188 (≈ 64.7 µg/mL) | 188 (≈ 64.7 µg/mL) | 907 (≈ 312 µg/mL) | 0.0312 (≈ 0.0907 µM) | 65^c μg per liter | MIC (Candida glabrata 4787; [8]): 65 µM (≈ 22.4 µg/mL)
C[N+](C)([BH2-]C#N)CCCCCCCCCC[N+](C)(C)[BH2-]C#N [K-J, N,N,N′,N′-tetramethyldecane-1,10-diamine bis-cyanoborane] |  |  |  |  |  | MIC (Candida albicans CBS 562; Candida albicans, CBS562, 24 h): 408 µM (≈ 125 µg/mL); MIC (Candida albicans 607; [9]): 408 µM (≈ 125 µg/mL); MIC (Candida albicans 615; [10]): 817 µM (≈ 250 µg/mL); MIC [1]: 0.065 µg/mL (≈ 0.212 µM)
CCCCCCC(C)(O)C[N+](C)(C)[BH2-]C#N (stereo not drawn) [K-O, 1-dimethylamino-2-methyl-octan-2-ol cyanoborane] | 2210 (≈ 500 µg/mL) | 1100 (≈ 249 µg/mL) | 1100 (≈ 249 µg/mL) | > 0.25 |  | 
CCCCCCCCCCCCCCCCC[N+](C)(C)[BH2-]C#N [K-S, heptadecyl-dimethyl-amine cyanoborane] |  |  |  |  |  | solubility [2]: solubility problems
CCCCCCCCCCC[N+](C)(C)[BH-]([18F])C#N (stereo not drawn) [[^18F]K-I4, [^18F]dimethyl-undecyl-amine cyanofluoroborane] |  |  |  |  |  | bio-distribution by PET/CT (Sprague-Dawley rats): uptake in the rat's bones; stability on TLC [3]: stable
